Columns and labels:
[1] = target: Integrin alpha-IIb/beta-3 (Homo sapiens, UniProt P05106+P08514); assay: Inhibition of FITC-labeled fibrinogen binding to integrin alpha2bbeta3 receptor in human platelets by flow cytometry
Platelet = assay: Inhibition of ADP-induced human platelet aggregation in platelet-rich plasma by Born's method; format: functional

Sequence of Integrin alpha-IIb/beta-3 (P05106 27-788 limits assumed): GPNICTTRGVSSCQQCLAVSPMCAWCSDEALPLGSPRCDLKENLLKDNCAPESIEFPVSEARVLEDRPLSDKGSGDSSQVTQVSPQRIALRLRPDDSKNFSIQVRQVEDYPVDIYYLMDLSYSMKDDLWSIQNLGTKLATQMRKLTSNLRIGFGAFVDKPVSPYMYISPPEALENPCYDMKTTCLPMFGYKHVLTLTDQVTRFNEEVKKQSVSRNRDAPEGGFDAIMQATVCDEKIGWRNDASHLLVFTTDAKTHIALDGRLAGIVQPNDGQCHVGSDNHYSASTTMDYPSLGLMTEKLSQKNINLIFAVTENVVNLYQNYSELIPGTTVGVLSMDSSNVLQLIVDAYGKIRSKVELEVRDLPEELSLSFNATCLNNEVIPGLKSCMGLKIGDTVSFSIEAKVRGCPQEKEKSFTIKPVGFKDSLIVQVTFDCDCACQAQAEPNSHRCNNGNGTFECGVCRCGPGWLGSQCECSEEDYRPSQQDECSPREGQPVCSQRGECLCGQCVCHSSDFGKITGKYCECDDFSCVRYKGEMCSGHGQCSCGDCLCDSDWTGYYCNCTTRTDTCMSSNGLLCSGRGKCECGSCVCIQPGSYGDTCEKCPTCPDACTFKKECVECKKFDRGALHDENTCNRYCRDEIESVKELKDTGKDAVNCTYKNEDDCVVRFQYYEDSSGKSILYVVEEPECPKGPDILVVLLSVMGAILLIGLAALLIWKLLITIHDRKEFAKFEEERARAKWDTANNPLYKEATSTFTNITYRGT
Sequence of Integrin alpha-IIb/beta-3 (P08514 32-887 limits assumed): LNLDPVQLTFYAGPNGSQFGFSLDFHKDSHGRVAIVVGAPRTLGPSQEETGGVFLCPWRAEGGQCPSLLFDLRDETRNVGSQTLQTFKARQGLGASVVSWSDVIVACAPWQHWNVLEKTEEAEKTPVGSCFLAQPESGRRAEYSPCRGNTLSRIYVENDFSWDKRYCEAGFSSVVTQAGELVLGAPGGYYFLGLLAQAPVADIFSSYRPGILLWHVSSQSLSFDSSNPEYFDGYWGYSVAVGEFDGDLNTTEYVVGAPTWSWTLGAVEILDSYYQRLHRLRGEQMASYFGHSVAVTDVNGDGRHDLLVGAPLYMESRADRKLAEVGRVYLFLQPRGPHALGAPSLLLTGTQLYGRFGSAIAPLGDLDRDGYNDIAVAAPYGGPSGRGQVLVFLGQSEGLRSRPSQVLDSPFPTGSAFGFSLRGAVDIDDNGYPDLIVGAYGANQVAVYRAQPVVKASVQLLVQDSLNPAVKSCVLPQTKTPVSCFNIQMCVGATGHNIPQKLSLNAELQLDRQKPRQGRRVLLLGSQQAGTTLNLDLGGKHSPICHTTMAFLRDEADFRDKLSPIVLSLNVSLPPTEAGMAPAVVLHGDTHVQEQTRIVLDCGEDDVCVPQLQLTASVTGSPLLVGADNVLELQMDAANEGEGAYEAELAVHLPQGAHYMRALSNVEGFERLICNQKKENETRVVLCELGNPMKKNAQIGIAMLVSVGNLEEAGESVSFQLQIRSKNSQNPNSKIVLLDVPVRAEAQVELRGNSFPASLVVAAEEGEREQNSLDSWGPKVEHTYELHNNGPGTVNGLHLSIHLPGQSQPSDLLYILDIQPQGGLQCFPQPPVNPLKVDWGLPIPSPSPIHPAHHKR
Sequence of Integrin alpha-IIb/beta-3 (P08514 891-1039 limits assumed): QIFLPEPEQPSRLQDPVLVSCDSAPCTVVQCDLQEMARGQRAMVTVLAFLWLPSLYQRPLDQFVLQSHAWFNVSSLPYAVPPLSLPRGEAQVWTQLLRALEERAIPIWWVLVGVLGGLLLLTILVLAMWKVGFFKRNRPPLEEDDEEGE

CC(CC(=O)O)N1Cc2ccc(NC(=O)c3ccc4c(c3)CNCC4)cc2C1=O (racemic)
IC50 [1]: 6.5 nM

O=C(O)CCN1Cc2ccc(NC(=O)CCCC3CCNCC3)cc2C1=O
IC50 [1]: 5.5 nM

O=C(O)CCN1Cc2ccc(NC(=O)c3ccc(C4CCNCC4)cc3)cc2C1=O
IC50 [1]: 6.8 nM

CC(CC(=O)O)N1Cc2ccc(NC(=O)CC3CCNCC3)cc2C1=O (racemic)
IC50 (Platelet): 2700 nM

CC(CC(=O)O)N1Cc2ccc(NC(=O)c3cccc(N4CCNCC4)c3)cc2C1=O (racemic)
IC50 (Platelet): 62000 nM

O=C(O)CCCN1Cc2ccc(NC(=O)CC3CCNCC3)cc2C1=O
IC50 (Platelet): 1800 nM

O=C(O)CCN1Cc2ccc(NC(=O)c3cccc(N4CCNCC4)c3)cc2C1=O
IC50 (Platelet): 2700 nM

O=C(O)CN1Cc2ccc(NC(=O)c3ccc(C4CCNCC4)cc3)cc2C1=O
IC50 [1]: 270 nM

O=C(O)CN1Cc2ccc(NC(=O)c3ccc(N4CCNCC4)cc3)cc2C1=O
IC50 (Platelet): 3300 nM

O=C(O)CCN1Cc2ccc(NC(=O)CC3CCNCC3)cc2C1=O
IC50 (Platelet): 7400 nM

O=C(O)CCN1Cc2ccc(NC(=O)c3ccc4c(c3)CNCC4)cc2C1=O
IC50 [1]: 6.5 nM

CC(CC(=O)O)N1Cc2ccc(NC(=O)CCCC3CCNCC3)cc2C1=O (racemic)
IC50 [1]: 350 nM

O=C(O)CN1Cc2ccc(NC(=O)CC3CCNCC3)cc2C1=O
IC50 (Platelet): 51000 nM

CC(CC(=O)O)N1Cc2ccc(NC(=O)c3ccc(N4CCNCC4)cc3)cc2C1=O (racemic)
IC50 [1]: 37 nM

CCCCS(=O)(=O)N[C@@H](Cc1ccc(OCCCCC2CCNCC2)cc1)C(=O)O [TIROFIBAN]
IC50 (Platelet): 32 nM

O=C(O)CN1Cc2ccc(NC(=O)c3ccc4c(c3)CNCC4)cc2C1=O
IC50 [1]: 1200 nM
